Data on 19 molecules can be found in ChEMBL document CHEMBL1268853, “Characterization of Acetylcholinesterase Inhibitory Constituents from Annona glabra Assisted by HPLC Microfractionation” (J Nat Prod, 2010).

Structures can show the parent of a compound that is named as a salt. Some results are limits rather than exact numbers.

Chain of Acetylcholinesterase (O42275 whole entry): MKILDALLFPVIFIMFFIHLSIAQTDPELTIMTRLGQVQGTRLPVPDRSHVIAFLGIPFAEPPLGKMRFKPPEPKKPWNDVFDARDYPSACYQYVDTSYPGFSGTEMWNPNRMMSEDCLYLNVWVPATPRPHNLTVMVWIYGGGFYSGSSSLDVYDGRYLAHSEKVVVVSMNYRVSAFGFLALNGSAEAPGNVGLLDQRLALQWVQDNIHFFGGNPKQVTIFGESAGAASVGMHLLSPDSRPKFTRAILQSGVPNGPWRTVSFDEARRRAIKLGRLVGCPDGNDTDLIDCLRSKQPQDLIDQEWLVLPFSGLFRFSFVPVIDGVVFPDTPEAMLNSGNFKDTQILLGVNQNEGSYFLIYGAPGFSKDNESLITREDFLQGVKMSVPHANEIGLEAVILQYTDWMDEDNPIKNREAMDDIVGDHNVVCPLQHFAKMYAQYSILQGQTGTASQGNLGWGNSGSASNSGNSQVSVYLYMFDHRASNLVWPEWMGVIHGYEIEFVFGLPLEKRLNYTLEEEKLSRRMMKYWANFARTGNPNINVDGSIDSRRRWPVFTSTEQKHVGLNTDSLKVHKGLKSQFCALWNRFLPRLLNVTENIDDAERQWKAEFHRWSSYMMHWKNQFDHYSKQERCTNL

The assay concerns the target Acetylcholinesterase (Electrophorus electricus, UniProt O42275). Put plainly: Inhibition of electric eel AChE by Ellman's method. In general terms: DTNB colorimetry detects thiols as they appear.
A word on the IC50: it is the concentration that gives 50% inhibition. High values mean a need for much substance, low ones inhibition by little substance. Regarding `COc1cccc2c1C(=O)c1c(C)cc(=O)[nH]c1C2=O`, the IC50 is 23.4 µM. In other words, the double-digit micromolar range.
The molecule `COc1cc2ccnc3c2c(c1OC)-c1cc2c(cc1C3=O)OCO2` registered an IC50 of over 150 µM.
As for `COc1cc2c(cc1O)C[C@H]1NCCc3cc4c(c-2c31)OCO4`, the figure is over 117 µM.
In turn, `COc1cc2c(cc1O)-c1cc3cc(OC)c(OC)cc3c[n+]1CC2` [PSEUDOCOLUMBAMINE TRIFLUOROACETATE] had a half-inhibitory concentration (IC50) of 5 µM.
For `COc1c(O)c2c3c(c1OC)-c1ccccc1C[C@H]3NCC2` the value was 110 µM; for `O=C1c2ccccc2-c2c3c(cc4ccnc1c24)OCO3` [LIRIODENINE], over 150 µM; for `O[C@@H]1c2ccccc2-c2c3c(cc4c2[C@H]1NCC4)OCO3`, over 126 µM.
Take `COc1cc2ccnc3c2c(c1OC)-c1ccccc1C3=O` [LYSICAMINE]: the IC50 was determined as 16.1 µM.
Turning to `COc1c(O)cc2c3c1-c1ccccc1C[C@H]3NCC2`, half-maximal inhibition (IC50) required 123 µM. Against the preceding molecule, the IC50 is about 7.6-fold higher.
As for `COc1cc2c(cc1OC)-c1cc3ccc(O)c(OC)c3c[n+]1CC2` [DEHYDROCORYDALMINE TRIFLUOROACETATE], it took 96.5 µM to reach half-maximal inhibition (IC50).
`COc1cc2c(cc1OC)-c1cc3cc(OC)c(OC)cc3c[n+]1CC2` [PSEUDOPALMATINE TRIFLUOROACETATE]: the IC50 came out at 1.8 µM.
`COc1cc2c(cc1OC)[C@@H]1Cc3ccc(O)c(OC)c3C=[N+]1CC2`: the IC50 was 30.8 µM. Against the preceding molecule, the IC50 is about 17-fold higher.
For the molecule `COc1cc2c(cc1O)C=[N+]1CCc3cc(OC)c(OC)cc3[C@@H]1C2`, the IC50 came out at 154 µM.
For `COc1cc2c3c(c1O)-c1c(ccc(OC)c1OC)C[C@@H]3[N+](C)(C)CC2`, the IC50 is over 140 µM.
Consider `COc1c(O)c2c3c(c1OC)-c1cc4c(cc1C[C@@H]3NCC2)OCO4`, for which the IC50 was found to be 76.9 µM.
Molecule `COc1cc2c(cc1O)C=[N+](C)CC2` registered an IC50 of 16 µM.
For `COc1cc2c[n+]3c(cc2cc1O)-c1cc(OC)c(OC)cc1CC3` [DEHYDROCORYTENCHINE TRIFLUOROACETATE], 97.6 µM corresponded to half-maximal inhibition (IC50). This IC50 is about 6.1-fold higher than that of the molecule before.
In turn, `COc1cc2c(cc1O)C[N@+]1(C)CCc3cc(OC)c(OC)cc3[C@@H]1C2` yielded an IC50 of 8.4 µM.
For the molecule `COc1ccc(C[C@H]2c3cc(O)c(OC)cc3CCN2C)cc1O`, the midpoint of inhibition, the IC50, lay at 72.2 µM.
